Values after ≈ are worked out from the molar mass of the structure shown. Where two headings read alike, the source gives them in different places.
Columns and labels:
[1] = Aqueous solubility (slurry shaken ca. 24 hours, filtered, HPLC); assay type: physicochemical; conditions: for solubility: aqueous buffer, thermodynamic from solid
Protocol: Aqueous Solubility: Aqueous solubility was measured using the following protocol. Slurries of genistein and of crystalline genistein sodium dihydrate salt were made up in aqueous media in which pH was set at 4.5, 6.7, and 7.5, each slurry was shaken at ambient temperature for ca. 24 hours and then filtered using a 0.2 μm filter into a clean vial. The saturated solutions were then diluted and analyzed for API (genistein) content using N-Ac-DL-Methionine on a Chirobiotic T HPLC column and UV detector set at λmax=270 nm. The mobile phase was acetonitrile/water run in isocratic mode over a 30 minute period. The results are presented in Table 3, (BDL=below detection limits).

[2] = Solubility in different solvents (aliquot addition until dissolution); assay type: physicochemical
Protocol: Solubility in different solvents: Solubility in different organic solvents was measured using the following protocol. Approximately 25 mg portions of genistein and crystalline genistein sodium dihydrate salt were placed in 48 different vials, separately. 5 volume aliquots of each solvent were added exclusively to a vial. Between each addition, the mixture was checked for dissolution and if no dissolution was apparent, the procedure was continued until dissolution was observed or when 50 volumes had been added.

[3] = rat; for AUClast / AUC∞: mean ± SD, n = 3
Protocol: Preparation of Dosing Solutions for In-Vivo Study: Genistein and Crystalline genistein sodium salt dihydrate were stored at room temperature under desiccant and protected from light. The dosing solutions were prepared fresh from powders on the day of dosing. The dosing solution for intravenous administration (IV) was prepared at 1 mg/mL (free acid) in 50:50 DMSO:saline. The dosing solutions for intraduodenal administration (ID) were prepared at 2 mg/mL (genistein free acid) in a 0.2% sodium carboxymethyl cellulose (Na CMC) solution in water.
Animal Dosing: The pharmacokinetics of genistein was evaluated in fasted male Sprague-Dawley rats. Each animal was fitted with a jugular vein cannula (JVC) for blood sampling. Animals intended for intravenous dosing were fitted with an additional JVC for dose administration. Animals intended for intraduodenal dosing were fitted with an intraduodenal cannula (IDC) for dose administration. Surgically modified animals were housed one per cage. All animals were supplied with a commercial rodent diet (LabDiet, Certified Rodent Diet #5002) ad libitum prior to study initiation. […] Water was supplied ad libitum.
Intraduodenal dosing solutions were administered as a single bolus dose at time zero on the day of dosing. Intravenous doses were administered as a slow IV injection over approximately 1 minute. Blood sampling times began at the end of the infusion. Blood samples were collected.
Each blood sample was collected from the rats via a jugular vein cannula and placed into chilled polypropylene tubes containing sodium heparin as an anticoagulant. Samples were centrifuged at a temperature of 4° C. and at a speed of 13,000 rpm for 5 minutes. Samples were maintained chilled throughout processing. Each plasma sample was split into two aliquots. The first aliquot contained 50 μL of plasma. All remaining plasma volume was used for the second aliquot. Samples were then placed on dry ice, and stored in a freezer set to maintain −60° C. to −80° C. The total concentration of genistein in plasma samples were analyzed by LC-MS/MS after an overnight incubation with glucuronidase/arylsulfatase enzyme mixture. Pharmacokinetic parameters were calculated using the WinNonlin software.
Analysis of Plasma Samples: An LC-MS/MS analytical method for the determination of genistein in rat plasma was developed. Prior to sample analysis, a standard curve was analyzed to determine the specificity, range, and linearity of the method. Total genistein in plasma samples was determined by pre-treating all samples with β-glucuronidase/arylsulfatase enzymes and incubating prior to analysis. Incubation with the enzyme mix deconjugated any glucuronide or sulfate metabolites of genistein back to the parent form.
Acceptance Criteria for LC-MS/MS Analysis: One standard curve was dispersed throughout each analytical run. At least ⅝ of the standards must be accurate to within ±20%, except at the LLOQ where ±25% is acceptable, in order for the run to pass.
Pharmacokinetic Analysis: Individual plasma concentrations versus time data for genistein were subjected to non-compartmental analysis using the pharmacokinetic program WinNonlin v. […] Plasma concentrations below the limit of quantitation (10 ng/mL) were assigned a value of zero for PK analysis only.

[4] = cited from earlier work
[5] = SuperSol 1000 kinetic and equilibrium solubility assay
[6] = Gravimetric vapor sorption (GVS); assay type: physicochemical
Protocol: Gravimetric Vapor Sorption (GVS): Approximately 15 mg of sample was placed into a wire-mesh vapor sorption balance pan and loaded into an SMS intrinsic vapor sorption balance supplied (Surface Measurement Systems Instruments). The sample was then dried by maintaining a 0% humidity environment until no further weight change was recorded. Subsequently, the sample was then subjected to a ramping profile from 0-90% RH at 10% RH increments, maintaining the sample at each step until equilibration had been attained (99.5% step completion). Upon reaching equilibration, the % RH within the apparatus was ramped to the next step and the equilibration procedure repeated. After completion of the sorption cycle, the sample was then dried using the same procedure. The weight change during the sorption/desorption cycles were then monitored, allowing for the hygroscopic nature of the sample to be determined.
However, between 20 and 70 RH % (typical working range of material) only ca. 2% moisture change was observed.

[7] = Stability study (80° C., 40° C./75 RH %, light; XRPD and colour); assay type: physicochemical
Protocol: Sample stability was tested at 80° C. for 7 days and at 40° C./75 RH % for 7 days. Observations such as color change were noted after 7 days and XRPD of samples were taken after 7 days to investigate any solid form change.

[8] = Disproportionation study (slurry in distilled water, XRPD, pH); assay type: physicochemical; conditions: 50 mg slurried in 250 μL distilled water ca. 48 hours
Protocol: A 50 mg sample of crystalline genistein sodium salt dihydrate was slurried in 250 μL distilled water for ca. 48 hours and then checked by XRPD for disproportionation. The pH of the supernatant was also measured using a Corning 240 pH meter. […] The pH of the supernatant after slurrying was 7.1.

[9] = Hydration study (IPA/water mixtures, XRPD and TGA); assay type: physicochemical; conditions: IPA/water mixtures (3%, 5% and 10%), ca. 48 hours, ambient temperature
Protocol: Approximately 100 mg of crystalline genistein sodium salt dihydrate were placed in ca. 500 μL IPA/water mixtures (3%, 5% and 10%) at the water level. Each mixture was agitated for ca. 48 hours at ambient temperature and then filtered to recover the solid for XRPD and TGA studies.

[10] = Water/slurry pH 4.5, ambient temperature
[11] = Water/slurry pH 6.7, ambient temperature
[12] = Water/slurry pH 7.5, ambient temperature
[13] = aqueous with cosolvent or surfactant or cyclodextrin, thermodynamic from solid, Acetone/Water (50:50)
[14] = organic solvent or mixture, thermodynamic from solid, 1,4-dioxane
[15] = organic solvent or mixture, thermodynamic from solid, 1-Butanol (BuOH)
[16] = organic solvent or mixture, thermodynamic from solid, 2-Propanol (IPA)
[17] = organic solvent or mixture, thermodynamic from solid, Acetone
[18] = organic solvent or mixture, thermodynamic from solid, Acetone/IPA (50:50)
[19] = organic solvent or mixture, thermodynamic from solid, Acetonitrile (MeCN)
[20] = organic solvent or mixture, thermodynamic from solid, Cyclohexane
[21] = organic solvent or mixture, thermodynamic from solid, Dichloromethane (DCM)
[22] = organic solvent or mixture, thermodynamic from solid, Diisopropylether (DIPE)
[23] = organic solvent or mixture, thermodynamic from solid, Dimethyl sulfoxide (DMSO)
[24] = organic solvent or mixture, thermodynamic from solid, Ethanol (EtOH)
[25] = organic solvent or mixture, thermodynamic from solid, Heptane
[26] = organic solvent or mixture, thermodynamic from solid, Methanol (MeOH)
[27] = organic solvent or mixture, thermodynamic from solid, Methyl acetate (MeOAc)
[28] = organic solvent or mixture, thermodynamic from solid, Methyl isobutyl ketone (MIBK)
[29] = organic solvent or mixture, thermodynamic from solid, Methylethyl ketone (MEK)
[30] = organic solvent or mixture, thermodynamic from solid, N-Methyl-2-pyrrolidinone (NMP)
[31] = organic solvent or mixture, thermodynamic from solid, N-N-dimethylformamide (DMF)
[32] = organic solvent or mixture, thermodynamic from solid, Octanol
[33] = organic solvent or mixture, thermodynamic from solid, Tetrahydrofuran (THF)
[34] = organic solvent or mixture, thermodynamic from solid, Toluene
[35] = organic solvent or mixture, thermodynamic from solid, Toluene/Dioxane (50:50)
[36] = organic solvent or mixture, thermodynamic from solid, tert-Butylmethyl ether (TBME)

## O=c1c(-c2ccc(O)cc2)coc2cc(O)cc(O)c12 [Genistein, 4′,5,7-trihydroxyisoflavone-5,7-dihydroxy-3-(4-hydroxyphenyl)-4H-1-benzopyran-4-one]
[1]; [10]
  Aqueous solubility: BDL
[1]; [11]
  Aqueous solubility: BDL
[1]; [12]
  Aqueous solubility: BDL
[2]; [13]
  solubility: < 10.1 mg/mL
[2]; [14]
  solubility: < 10.3 mg/mL
[2]; [15]
  solubility: < 10.5 mg/mL
[2]; [16]
  solubility: < 10.5 mg/mL
[2]; [17]
  solubility: ~17 mg/mL (≈ 62.9 mM)
[2]; [18]
  solubility: 20.1 mg/mL (≈ 74.4 mM)
[2]; [19]
  solubility: < 10.1 mg/mL
[2]; [20]
  solubility: < 10.7 mg/mL
[2]; [21]
  solubility: < 10.3 mg/mL
[2]; [22]
  solubility: < 10.6 mg/mL
[2]; [23]
  solubility: ~100 mg/mL (≈ 370 mM)
[2]; [24]
  solubility: < 10.8 mg/mL
[2]; [25]
  solubility: < 10.5 mg/mL
[2]; [26]
  solubility: < 10.6 mg/mL
[2]; [27]
  solubility: < 10.3 mg/mL
[2]; [28]
  solubility: < 10.1 mg/mL
[2]; [29]
  solubility: < 10.8 mg/mL
[2]; [30]
  solubility: ~68 mg/mL (≈ 252 mM)
[2]; [31]
  solubility: ~100 mg/mL (≈ 370 mM)
[2]; [32]
  solubility: < 10.5 mg/mL
[2]; [33]
  solubility: 26.3 mg/mL (≈ 97.3 mM)
[2]; [34]
  solubility: < 10.1 mg/mL
[2]; [35]
  solubility: < 10.1 mg/mL
[2]; [36]
  solubility: < 10.5 mg/mL
[3]; intraduodenal, 20 mg/kg
  AUClast: 414 ± 111 kg·ng·h/mL/mg
[3]; intravenous, 1 mg/kg
  AUClast: 2533 ± 638 kg·ng·h/mL/mg
  AUC∞: 2584 ± 639 kg·ng·h/mL/mg
[4]; background statement
  Solubility in water (in words): practically insoluble
[4]; reported range
  Aqueous solubility (reported): 0.01 to 0.04 µM
[5]; EtOH 100%
  C[Eq] (late kinetic solubility): 13.79 mg×1^−1
  C[MSS] (early kinetic solubility): 5.81 mg×1^−1
  ISI (Intrinsic Solubility Index): 2.11
  ISI / late solubility profile, rating in words: good
  KSR (Kinetic Solubility ratio): 0.42
  KSR, rating in words: acceptable
  MSS (Maximum Solubility Speed): 23.81 mg×1^−1×min^−1
  MSS, rating in words: good
  ΔC [C, − CMSS]: 7.98 mg×1^−1
[5]; EtOH/dH2O 50/50 (vol/vol)
  C[Eq] (late kinetic solubility): 12.87 mg×1^−1
  C[MSS] (early kinetic solubility): 7.43 mg×1^−1
  ISI (Intrinsic Solubility Index): 1.55
  ISI / late solubility profile, rating in words: good
  KSR (Kinetic Solubility ratio): 0.58
  KSR, rating in words: acceptable
  MSS (Maximum Solubility Speed): 12.18 mg×1^−1×min^−1
  MSS, rating in words: good
  ΔC [CEq − CMSS]: 5.44 mg×1^−1
[5]; EtOH/dH2O 75/25 (vol/vol)
  C[Eq] (late kinetic solubility): 14.03 mg×1^−1
  C[MSS] (early kinetic solubility): 8.52 mg×1^−1
  ISI (Intrinsic Solubility Index): 1.49
  ISI / late solubility profile, rating in words: good
  KSR (Kinetic Solubility ratio): 0.61
  KSR, rating in words: good
  MSS (Maximum Solubility Speed): 19.67 mg×1^−1×min^−1
  MSS, rating in words: good
  ΔC [CEq − CMSS]: 5.51 mg×1^−1

## O.O.O=c1c(-c2ccc(O)cc2)coc2cc(O)cc(O)c12.[Na] [genistein sodium salt dihydrate]
[1]; [10]
  solubility: 0.136 mg/mL
[1]; [11]
  solubility: 0.707 mg/mL
[1]; [12]
  solubility: 0.65 mg/mL
[2]; [13]
  solubility: 69.6 mg/mL
[2]; [14]
  solubility: < 10.6 mg/mL
[2]; [15]
  solubility: 19.3 mg/mL
[2]; [16]
  solubility: < 10.2 mg/mL
[2]; [17]
  solubility: < 10.2 mg/mL
[2]; [18]
  solubility: 20.2 mg/mL
[2]; [19]
  solubility: < 10.4 mg/mL
[2]; [20]
  solubility: < 10.9 mg/mL
[2]; [21]
  solubility: < 10.8 mg/mL
[2]; [22]
  solubility: < 9.7 mg/mL
[2]; [23]
  solubility: > 235 mg/mL
[2]; [24]
  solubility: 98 mg/mL
[2]; [25]
  solubility: < 9.9 mg/mL
[2]; [26]
  solubility: < 8.8 mg/mL
[2]; [27]
  solubility: < 10.2 mg/mL
[2]; [28]
  solubility: < 9 mg/mL
[2]; [29]
  solubility: < 9.2 mg/mL
[2]; [30]
  solubility: 90.4 mg/mL
[2]; [31]
  solubility: > 218 mg/mL
[2]; [32]
  solubility: < 11 mg/mL
[2]; [33]
  solubility: < 10.4 mg/mL
[2]; [34]
  solubility: < 9.9 mg/mL
[2]; [35]
  solubility: < 9.7 mg/mL
[2]; [36]
  solubility: < 9.2 mg/mL
[6]; 0-90% RH cycle
  Maximum water adsorbed (GVS): 45 wt %
[6]; between 20 and 70 RH %
  Moisture change (GVS): ca. 2%
[7]; 40° C./75 RH % for 7 days
  Solid form stability (XRPD, colour): no change
[7]; 80° C. for 7 days
  Solid form stability (XRPD, colour): slight loss in crystallinity
[7]; 7 day light stability tests
  Light stability: no change in color or solid form
[8]
  Disproportionation (XRPD): No signs of disproportionation
  pH of the supernatant after slurrying: 7.1
[9]
  Hydrate formation (XRPD, TGA): no further hydrates
[3]; intraduodenal dosing, mean profile (FIG. 13)
  Time after ID dosing at which Cmax was observed: ≤ 15 min
[3]; intraduodenal, 20 mg/kg
  AUClast: 1161 ± 358 kg·ng·h/mL/mg
[3]; intravenous, 1 mg/kg
  Pharmacokinetic profile following IV dosing, compared between the two forms: not significantly different
  AUClast: 2129 ± 331 kg·ng·h/mL/mg
  AUC∞: 2189 ± 356 kg·ng·h/mL/mg
[5]; EtOH 100%
  C[Eq] (late kinetic solubility): 11.20 mg×1^−1
  C[MSS] (early kinetic solubility): 10.85 mg×1^−1
  ISI (Intrinsic Solubility Index): 0.07
  ISI / late solubility profile, rating in words: poor
  KSR (Kinetic Solubility ratio): 0.97
  KSR, rating in words: excellent
  MSS (Maximum Solubility Speed): 36.90 mg×1^−1×min^−1
  MSS, rating in words: excellent
  ΔC [C, − CMSS]: 0.35 mg×1^−1
[5]; EtOH/dH2O 50/50 (vol/vol)
  C[Eq] (late kinetic solubility): 17.40 mg×1^−1
  C[MSS] (early kinetic solubility): 14.67 mg×1^−1
  ISI (Intrinsic Solubility Index): 0.60
  ISI / late solubility profile, rating in words: good-to-acceptable
  KSR (Kinetic Solubility ratio): 0.84
  KSR, rating in words: excellent
  MSS (Maximum Solubility Speed): 20.66 mg×1^−1×min^−1
  MSS, rating in words: excellent
  ΔC [CEq − CMSS]: 2.73 mg×1^−1
[5]; EtOH/dH2O 75/25 (vol/vol)
  C[Eq] (late kinetic solubility): 15.86 mg×1^−1
  C[MSS] (early kinetic solubility): 11.20 mg×1^−1
  ISI (Intrinsic Solubility Index): 1.26
  ISI / late solubility profile, rating in words: excellent
  KSR (Kinetic Solubility ratio): 0.71
  KSR, rating in words: excellent
  MSS (Maximum Solubility Speed): 37.33 mg×1^−1×min^−1
  MSS, rating in words: excellent
  ΔC [CEq − CMSS]: 4.66 mg×1^−1
